The target in one data set is T1, human MC4 receptor (Homo sapiens, UniProt P32245).
T1 construct: purchased Biolinks Co; host or cells: HEK-293 cell membranes
Description: MC4 receptor binding assay. The conditions noted are these: HEK-293 cell membranes expressing human MC4 receptor; [125I]Nle4-D-Phe7-α-MSH 0.2 nM; 25° C., 120 minutes. On the procedure:
Experiment 1 [MC4 Receptor Binding Assay]
MC4 receptor binding assay was carried out according to the method described in Pharmacology & Taxicology, 79, 161-165, 1996, HEK-293 cell membranes expressing the human MC4 receptor were purchased from Biolinks Co. The cell membranes were homogenized in a 50 mM Tris hydrochloric acid buffer solution (pH 7.4) containing 2 mM ethylenediamine tetraacetic acid, 10 mM calcium chloride and 100 μM phenylmethanesulfonyl-fluoride. The homogenate was centrifuged at 48,000×g for 20 minutes at 4° C. The precipitate obtained by centrifugation was again homogenized in the same buffer solution, and the homogenate was centrifuged at 48,000×g for 20 minutes at 4° C. This procedure was repeated twice. The precipitate was suspended in 50 mM Tris hydrochloric acid buffer solution (pH 7.4) containing 2 mM ethylenediamine tetraacetic acid, 10 mM calcium chloride, 100 μM phenylmethanesulfonylfluoride and 0.1% bovine serum albumin to adjust to a protein concentration of 100 μg/ml to give a crude membrane preparation which was used for the binding assay. […] The radioactivity on the filter paper was measured in a gamma-counter. […] The IC50 value was calculated from the inhibition curve in the concentration range of 10^−9-10^−5.

Data set [1] has as its system olfactory bulbectomized rats. Put plainly: Anti-depressant action in olfactory bulbectomized rats (open field). Format: in vivo, rat. To be noted: subcutaneous 1 mg/kg, 3 mg/kg or 10 mg/kg once a day for 2 weeks; test 24 hours after final administration; 3 minutes; FIG. 4. The source says: Anti-depressant action of Compound 4 in Table 1 in olfactory bulbectomized rats was studied. Male SD rats weighing 220 to 240 g (Charles River Japan Inc.) were used. Rats were anesthetized with sodium pentobarbital, the olfactory bulbs were removed by suction using a metal pipe linked to a water aspirator. Two weeks after the removal of the olfactory bulbs, rats were divided into 10 to 11 animals for each group. The rats of one group were subcutaneously administered once a day for 2 weeks with the test drug which was prepared by dissolving a predetermined amount of the test drug in saline for injection and adding 0.5 M aqueous sodium hydroxide solution to adjust to pH 4-5. Twenty four hours after the final administration, the rats were placed in the center of a circular open field apparatus (70 cm diameter 25 blocks), and the number of crossings among blocks during 3 minutes was counted.

The subject of data set [2] is recombinant human melanocortin receptors. Put plainly: Antagonism in recombinant human melanocortin receptors.
In data set [3] the test system is Male SD rats. Put plainly: Anti-anxiety action in forced swim stress-induced anxiety model of rats (elevated plus-maze test). The data set is classed as in vivo, rat. The conditions noted are these: subcutaneous 0.3 mg/kg, 1 mg/kg or 3 mg/kg, 30 minutes before 2-minute forced swim stress, 5-minute period, FIG. 3. On the procedure:
Anti-anxiety action of Compound 4 in Table 1 in forced swim stress-induced anxiety model of rats was studied.
Male SD rats weighing 220 to 240 g (Charles River Japan Inc.) were used. Rats were divided into 10 animals for each group. To rats of group to be administered with the test compound was subcutaneously administered the test compound which was prepared by dissolving a predetermined amount of the test drug in saline for injection and adding 0.5 M aqueous sodium hydroxide solution to adjust to pH 4-5. Thirty minutes after the administration, rats were exposed to a forced swim stress by placing in a black cylinder (20 cm internal diameter, 40 cm high) containing 25 cm deep of water maintained at 25° C. Duration of the forced swim stress was 2 minutes, and the anti-anxiety action was studied by the elevated plus-maze test, which was carried out 5 minutes after the forced swim stress.
The elevated plus-maze used for the test consisted of open arms (10 cm wide, 50 cm long) and close arms (10 cm wide, 50 cm long), and the open arms and the enclosed arms were covered with 1 cm-high and 40 cm-high transparent Plexiglas, respectively. The plus-maze was placed in 50 cm high from the floor. Luminosity at the center of the maze was 40 lux. […] The amount of time spent in open arms of the maze was recorded during a 5-minute period.

The subject of data set [4] is Male SD rats. Put plainly: Anti-anxiety action in Vogel test (Conflict test) in rats. Format: in vivo, rat. To be noted: subcutaneous 1 mg/kg, 3 mg/kg or 10 mg/kg, 30 minutes before test; electric shock 1.0 mA; 3 minutes; FIG. 2. On the procedure:
Anti-anxiety action of Compound 4 in Table 1 in Vogel test (Conflict test) in rats was studied.
Male SD rats weighing 220 to 240 g (Charles River Japan Inc.) were used. Rats deprived of drinking water for 48 hours were divided into 10 animals for each group. To rats of group to be administered with the test compound was subcutaneously administered the test compound which was prepared by dissolving a predetermined amount of Compound 4 in Table 1 in saline for injection and adding 0.5 M aqueous sodium hydroxide solution to adjust to pH 4-5. Thirty minutes after the administration, rats were placed in a apparatus for the test, and drinking behaviors during the time of free access to drinking water for 3 minutes were measured. During the time of free access to drinking water, an electric shock (1.0 mA) was released, every 2 seconds of cumulative licking time to the drinking nozzle. The evaluation of this experiment was carried out using the number of the electric shocks.

The subject of data set [5] is Male SD rats. Description: Anxiogenic-like activity in Vogel test in rat (Proconflict test). Format: in vivo. To be noted: intracerebroventricular administration, 30 minutes before test; electric shock 0.4 mA; 3 minutes; FIG. 1. On the procedure: Anxiogenic-like activity inducing action by α-MSH and MTII in Vogel test in rat (Proconflict test) was studied.
α-MSH and MTII were purchased from Peninsula Laboratories. Male SD rats weighing 220 to 240 g (Charles River Japan Inc.) were used for animals. Rats deprived of drinking water for 48 hours were divided into 5 animals for each group. The test compound was administered to rats intracerbroventricularly at 10 μl/2 min. of the test compound which was prepared by dissolving a predetermined amount of α-MSH or MTII in saline containing 0.1% bovine serum albumin. To control rats which were not administered test compound, saline containing 0.1% bovine serum albumin was administered intracerebroventricularly at 10 μl/2 min. Thirty minutes after the administration, rats were placed in a apparatus for the test, and drinking behaviors during the time of free access to drinking water for 3 minutes were measured. During the time of free access to drinking water, an electric shock (0.4 mA) was released, every 2 seconds of cumulative licking time to the drinking nozzle. The evaluation of this experiment was carried out using the number of the electric shocks.

14 compounds from patent US6949552B2, “Remedial agent for anxiety neurosis or depression and piperazine derivative” (Taisho Pharmaceutical Co., Ltd., priority 2000, dated 2005) can be followed below.

The term melting point denotes the temperature, or range, at which the solid turns liquid. Usually IC50 stands for the concentration at which inhibition is half-maximal.

Counter-ions that a name gives are not always drawn.

T1 sequence (P32245 whole entry): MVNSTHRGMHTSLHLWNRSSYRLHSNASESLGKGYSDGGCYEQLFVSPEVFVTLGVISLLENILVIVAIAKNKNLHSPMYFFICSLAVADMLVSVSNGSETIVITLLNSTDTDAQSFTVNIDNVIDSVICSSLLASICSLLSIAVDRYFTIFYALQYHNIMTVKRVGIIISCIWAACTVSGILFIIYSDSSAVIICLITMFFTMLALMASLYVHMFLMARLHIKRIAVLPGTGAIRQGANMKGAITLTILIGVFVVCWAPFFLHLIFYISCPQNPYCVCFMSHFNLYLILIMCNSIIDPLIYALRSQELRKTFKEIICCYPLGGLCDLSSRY

Consider `CC(C)N1CCN(C(CN2CCN(CCCCc3cccc4ccccc34)CC2)c2ccc(F)cc2)CC1.O=C(O)/C=C\C(=O)O.O=C(O)/C=C\C(=O)O.O=C(O)/C=C\C(=O)O` (stereo not shown), for which the melting point lay in the range of 127 to 129 °C.

With `N=C(N)N1CCN(C(CN2CCN(CCCCc3cccc4ccccc34)CC2)c2ccc(F)cc2)CC1.O=C(O)/C=C\C(=O)O.O=C(O)/C=C\C(=O)O.O=C(O)/C=C\C(=O)O` (stereo not shown), the melting point is 171 to 173 °C. Still for that read-out and setting: then `COc1ccc(C(CN2CCN(CCCCc3cccc4ccccc34)CC2)N2CCN(C)CC2)cc1.O=C(O)/C=C\C(=O)O.O=C(O)/C=C\C(=O)O.O=C(O)/C=C\C(=O)O` (stereo not shown), with 138 to 140 °C; and `CN1CCN(C(CN2CCN(CCCCc3cccc4ccccc34)CC2)c2ccc(N)cc2)CC1.O=C(O)/C=C\C(=O)O.O=C(O)/C=C\C(=O)O.O=C(O)/C=C\C(=O)O` (stereo not shown), with 152 to 154 °C. The compound `CN1CCN(C(CN2CCN(CCCCc3noc4cc(F)ccc34)CC2)c2ccc(F)cc2)CC1.O=C(O)/C=C\C(=O)O.O=C(O)/C=C\C(=O)O.O=C(O)/C=C\C(=O)O` (stereo not shown) displayed a melting point of 170 to 173 °C.

`CN1CCN(C(CN2CCN(CCCCc3cccc4ccccc34)CC2)c2ccc(F)cc2)CC1.Cl` (stereo not shown) yielded a melting point of 193 to 195 °C. Same read-out and setting: then `CC(C)Oc1ccc2ccccc2c1CCCCN1CCN(CC(c2ccc(F)cc2)N2CCN(C(C)C)CC2)CC1.O=C(O)/C=C\C(=O)O.O=C(O)/C=C\C(=O)O.O=C(O)/C=C\C(=O)O` (stereo not shown), with 167 to 169 °C; and `COc1ccc2ccccc2c1CCCCN1CCN(CC(c2ccc(F)cc2)N2CCN(C(C)C)CC2)CC1.Cl.Cl.Cl.Cl` (stereo not shown), with 183 to 185 °C; and `COc1ccc2ccccc2c1CCCCN1CCN(CC(c2ccc(F)cc2)C2CCN(C(C)C)CC2)CC1.Cl.Cl.Cl` (stereo not shown), with 233 to 235 °C.

`CN1CCC(O)(C(CN2CCN(CCCCc3cccc4ccccc34)CC2)c2ccc(F)cc2)CC1.Cl.Cl.Cl` (stereo not shown) showed a melting point of 156 to 160 °C.

`CN1CCN(C(CN2CCN(CCCCc3cccc4ccccc34)CC2)c2ccc(F)cc2)CC1` (single isomer, unassigned; (-)) [Compound 6, (−)-1-[2-(4-Fluorophenyl)-2-(4-methylpiperazino)ethyl]-4-[4-naphthalen-1-yl-butyl]piperazine hydrochloride]: the IC50 at human MC4 receptor was found to be 90 nM. This lies in the double-digit nanomolar range. Turning to `CN1CCN(C(CN2CCN(CCCCc3cccc4ccccc34)CC2)c2ccc(F)cc2)CC1.Cl.Cl.Cl.Cl` (stereo not shown) [Compound 4, 1-[2-(4-fluorophenyl)-2-(4-methylpiperazino)ethyl]-4-(4-naphthalen-1-yl-butyl)piperazine tetrahydrochloride], the melting point fell in the range of 193 to 195 °C. The “increased number of crossings among blocks in the open field” value in data set [1] is “significantly, dose-dependently antagonized”. The same compound came in with a 50% inhibitory concentration (IC50) at human MC4 receptor of 164 nM. Besides, the “action in recombinant human melanocortin receptors (selectivity)” value in data set [2] is given as “high selective antagonist”. The “decreased amount of time spent in open arms after forced swim stress” value with Male SD rats [3] was “significantly, dose-dependently antagonized”. For the same compound, in the data set on Male SD rats [4], the “decreased number of times of drinking water (number of the electric shocks) caused by electric shock” value was “significantly, dose-dependently antagonized”. For the compound MTII, in the data set on Male SD rats [5], the “number of times of drinking water (number of the electric shocks) in comparison with the control group” value is recorded as “dose-dependently, significantly decreased”. Still for that read-out and setting: then “α-MSH (Ac-SYSMEHFRWGKPV-NH2; ends and bridges not checked; UniProt P01189 138-150, looked up) [melanocyte stimulating hormone (melanocortin produced from POMC), purchased from Peninsula Laboratories]”, with “dose-dependently, significantly decreased”.
